The source of these data is patent US10975101B2, “Ultra-potent vinca alkaloids: added molecular complexity further disrupts the tublin dimer-dimer interface” (priority 2016, dated 2021).

“And” between values parts separate entries of the source, which are not always exact repeats. Identical values can stand only once. Like-named read-outs stand apart in the source and are kept apart here.

For one assay, the system named is tubulin. Nature of the assay: BODIPY-vinblastine/tubulin competitive displacement assay. To be noted: tubulin 0.91 μM, BODIPY-VBL 1.8 μM, vinblastine analogue 18 μM, 37° C., average of 4 measurements ± SD. The format is binding. The method, then:
As a consequence, the commercially available BODIPY-vinblastine fluorescent probe was used to assess tubulin binding and develop its use in a direct competitive binding assay.^15 [(a) Jiang et al., Cancer Res. 1998, 58, 5389; (b) Zhang et al., PloS one 2009, 4, e4881; (c) Rai et al., PloS one 2012, 7, e44311 and (d) Rashid et al., Biochemistry 2015, 54, 2149.]
In carrying out this study, tubulin (0.1 mg/mL, 0.91 μM) was incubated with BODIPY-vinblastine (BODIPY-VBL, 1.8 μM) and a vinblastine analogue (18 μM) at 37° C. in PEM buffer containing 850 μM GTP. The BODIPY-VBL fluorescence intensity (FI) (ex: 480 nm, em: 514 nm) of 100 μL aliquots from each incubation were measured in a fluorescence micro-plate reader at 37° C. Control studies were performed with BODIPY-VBL (control 1) in the absence of a competitive ligand (maximum FI enhancement due to tubulin binding) and (control 2) in the absence of tubulin (no FI enhancement due to tubulin binding). % BODIPY-VBL displacement was calculated by the formula (control 2 FI−experiment FI)/(control 2 FI−control 1 FI)×100. Reported values are the average 4 measurements±the standard deviation.
100 μL of 1 mg/mL tubulin in PEM and 25 μL of 72 μM BODIPY-VBL in DMSO were added to 850 μL of buffer (PEM+1 mM GTP). The solution was incubated at 37° C. for 15 minutes, after which 25 μL of 720 μM competitive ligand in DMSO was added. The solution was incubated for an additional 60 minutes at 37° C., after which 100 μL aliquots of each incubation were transferred into the wells of a 96-well plate (warmed to 37° C. in the plate reader). The BODIPY-vinblastine fluorescence intensity was measured (Ex 480 nm, Em 514 nm, Cutoff 495 nm) at 37° C. Control measurements were performed with BODIPY-VBL (control 1) in the absence of a competitive ligand (maximum FI enhancement due to tubulin binding) and (control 2) in the absence of tubulin (no FI enhancement due to tubulin binding). % BODIPY-VBL displacement was calculated by the formula (Control 2 FI−Experiment FI)/(Control 2 FI−Control 1 FI)×100. PEM: 80 mM PIPES-K pH 6.8, 2 mM MgSO4, 0.5 mM EGTA pH 6.8.

In assay [1] the test system is HCT116/VM46 (a vinblastine-resistant strain of HCT116) cells. To be noted: previously reported (footnote a, Barker et al. 2013) or background art table, cited from earlier work.
For assay [2], the system named is L1210 (mouse lymphocytic leukemia) cells. To be noted: previously reported in Barker et al., ACS Med. Chem. Lett. 2013, 4, 985; cited from earlier work.
The subject of assay [3] is HCT116 (human colorectal carcinoma) cells. To be noted: previously reported (footnote a, Barker et al. 2013) or background art table, cited from earlier work.
Assay [4] deals with L1210 (mouse lymphocytic leukemia) cells. The assay can be described thus: Cell growth inhibition assay, L1210. The following applies: 72 hours incubation, phosphatase assay. Type of assay: cell-based. The method, then: (§1) Compounds were tested for their cell growth inhibition of L1210 (ATCC no. CCL-219, mouse lymphocytic leukemia) cells, HCT116 (ATCC no. CCL-247, human colorectal carcinoma) cells, and HCT116/VM46 (a vinblastine-resistant strain of HCT116) cells in culture. A population of cells (>1×10^6 cells/mL as determined with a hemocytometer) was diluted with an appropriate amount of Dulbecco's Modified Eagle Medium (DMEM, Gibco) containing 10% fetal bovine serum (FBS, Gibco) to a final concentration of 30000 cells/mL.
(§2) To each well of a 96-well plate (Corning Costar), 100 μL of the cell media solution was added with a multichannel pipet. The cultures were incubated at 37° C. in an atmosphere of 5% CO2 and 95% humidified air for 24 hours. The test compounds were added to the plate as follows: test substances were diluted in DMSO to a concentration of 1 mM and 10-fold serial dilutions were performed on a separate 96-well plate. Fresh culture medium (100 μL) was added to each well of cells to constitute 200 μL of medium per well followed by 2 μL of each test agent. Compounds were tested in duplicate (n=2-18 times) at six concentrations between 0-1000 nM or 0-10000 nM. Following addition, cultures were incubated for an additional 72 hours.
(§3) A phosphatase assay was used to establish the IC50 values as follows: the media in each cell was removed and 100 μL of phosphatase solution (100 mg phosphatase substrate in 30 mL of 0.1 M NaOAc, pH 5.5, 0.1% Triton X-100 buffer) was added to each well. The plates were incubated at 37° C. for either 5 minutes (L1210) or 15 minutes (HCT116 and HCT116/VM46). After the given incubation time, 50 μL of 0.1 N NaOH was added to each well and the absorption at 405 nm was determined using a 96 well plate reader. As the absorption is directly proportional to the number of living cells, the IC50 values were calculated and the reported values represent of the average of 4-36 determinations (SD±10%).

The test system of assay [5] is HCT116 (human colorectal carcinoma) cells. Nature of the assay: cells. The format is cell-based. The protocol: as §1, §2, §3
Assay [6] relates to HCT116/VM46 (a vinblastine-resistant strain of HCT116) cells. The assay can be described thus: Cell growth inhibition assay, HCT116/VM46. Type of assay: cell-based, human. To be noted: for IC50: 72 hours incubation, phosphatase assay, Pgp-overexpressing resistant line; for increase in potency relative to vinblastine, HCT116/VM46: resistant line. The protocol:
as §1, §2, §3

Assay [7] concerns vinblastine sensitive tumor cell lines (L1210 and HCT116). The assay can be described thus: Cell growth inhibition, vinblastine-sensitive lines stated together. Type of assay: cell-based. The following applies: for more potent than the C20′ urea 9 / increase in potency relative to vinblastine: cell growth inhibition; for increase in potency relative to vinblastine: vinblastine-sensitive lines. The protocol:
as §1, §2, §3

Setting [8] is: 72 hours incubation, phosphatase assay, read-out: IC50, HCT116.
The mark [9] stands for this setting: listed beside % displacement in second TABLE 5, read-out: IC50 (nM, HCT116).

As for `CC[C@]1(O)C[C@@H]2CN(CCc3c([nH]c4ccccc34)[C@@](C(=O)OC)(c3cc4c(cc3OC)N(C)[C@H]3[C@@](O)(C(=O)OC)[C@H](OC(C)=O)[C@]5(CC)C=CCN6CC[C@]43[C@@H]65)C2)C1` [Compound 1, Vinblastine, reference compound], the entries for the “% displacement of BODIPY-vinblastine bound to tubulin” value with tubulin and with tubulin (listed as vinblastine) were 31 ± 9% and 31%, respectively. The IC50 in assay [1] is 600 nM.
As to `CC[C@]1(NC(=O)N2CCCC2)C[C@H]2CN(CCc3c([nH]c4ccccc34)[C@@](C(=O)OC)(c3cc4c(cc3OC)N(C)[C@H]3[C@@](O)(C(=O)OC)[C@H](OC(C)=O)[C@]5(CC)C=CCN6CC[C@]43[C@@H]65)C2)C1` [Compound 8], the IC50 is 0.7 nM in assay [2], 0.72 nM in assay [3], 0.7 nM in assay [3] (listed as drawing 14) and 50 nM in assay [1].
Regarding `CC[C@]1(NC(=O)N2Cc3ccccc3C2)C[C@H]2CN(CCc3c([nH]c4ccccc34)[C@@](C(=O)OC)(c3cc4c(cc3OC)N(C)[C@H]3[C@@](O)(C(=O)OC)[C@H](OC(C)=O)[C@]5(CC)C=CCN6CC[C@]43[C@@H]65)C2)C1` [Compound 9], the IC50 was 0.51 nM in assay [2]; 0.6 nM in assay [3]; 0.5 nM in assay [3] (listed as drawing 15); 7.5 nM in assay [1]; 4 nM in assay [1] (listed as drawing 15).
As for `CC[C@]1(NC(=O)N2CCCCC2)C[C@H]2CN(CCc3c([nH]c4ccccc34)[C@@](C(=O)OC)(c3cc4c(cc3OC)N(C)[C@H]3[C@@](O)(C(=O)OC)[C@H](OC(C)=O)[C@]5(CC)C=CCN6CC[C@]43[C@@H]65)C2)C1` [Compound 23], the IC50 is 5.5 nM in assay [2], 3.9 nM in assay [3] and 50 nM in assay [1].
In the case of `CC[C@]1(NC(=O)N2Cc3ccc(OC)cc3C2)C[C@H]2CN(CCc3c([nH]c4ccccc34)[C@@](C(=O)OC)(c3cc4c(cc3OC)N(C)[C@H]3[C@@](O)(C(=O)OC)[C@H](OC(C)=O)[C@]5(CC)C=CCN6CC[C@]43[C@@H]65)C2)C1` [Compound 35], the values for the IC50 in assay [2], in assay [3] and in assay [1] were 0.48 nM, 0.54 nM and 8.6 nM, respectively.
Turning to `CC[C@]1(NC(=O)N2Cc3ccc(NC(=O)c4ccccc4)cc3C2)C[C@H]2CN(CCc3c([nH]c4ccccc34)[C@@](C(=O)OC)(c3cc4c(cc3OC)N(C)[C@H]3[C@@](O)(C(=O)OC)[C@H](OC(C)=O)[C@]5(CC)C=CCN6CC[C@]43[C@@H]65)C2)C1` [Compound 50], the IC50 is 0.54 nM in assay [4]; 0.62 nM in assay [5] (setting [8]); 13 nM in assay [6]; 0.5 to 0.6 nM in assay [7] (L1210 and HCT116, range over both lines, read-out: IC50's against vinblastine-sensitive tumor cell lines).
Take `CC[C@]1(NC(=O)N2Cc3ccc(NC(=O)c4ccncn4)cc3C2)C[C@H]2CN(CCc3c([nH]c4ccccc34)[C@@](C(=O)OC)(c3cc4c(cc3OC)N(C)[C@H]3[C@@](O)(C(=O)OC)[C@H](OC(C)=O)[C@]5(CC)C=CCN6CC[C@]43[C@@H]65)C2)C1` [Compound 58]: the IC50 in assay [4] is 0.062 nM; in assay [5] (setting [8]), 0.074 nM; in assay [5] (setting [9]), 0.07 nM; in assay [6], 0.88 nM. Also, the “increase in potency relative to vinblastine, HCT116/VM46” value in assay [6] came out at 700 fold. For the same molecule, the “% displacement of BODIPY-vinblastine bound to tubulin” value in the assay on tubulin is 100% and 105 ± 5%. The “more potent than the C20′ urea 9” value in assay [7] is recorded as 10 fold. The “increase in potency relative to vinblastine” value in assay [7] turned out to be 100 fold.
Turning to `CC[C@]1(NC(=O)N2Cc3ccc(NC(=O)c4cnccn4)cc3C2)C[C@H]2CN(CCc3c([nH]c4ccccc34)[C@@](C(=O)OC)(c3cc4c(cc3OC)N(C)[C@H]3[C@@](O)(C(=O)OC)[C@H](OC(C)=O)[C@]5(CC)C=CCN6CC[C@]43[C@@H]65)C2)C1` [Compound 60], the IC50 in assay [4] turned out to be 0.059 nM; in assay [5] (setting [8]), 0.075 nM; in assay [5] (setting [9]) it was 0.07 nM; in assay [6], 0.83 nM. Moreover, the “increase in potency relative to vinblastine, HCT116/VM46” value in assay [6] is 700 fold. Besides, the “% displacement of BODIPY-vinblastine bound to tubulin” value with tubulin was 100% and 104 ± 12%. In addition, the “more potent than the C20′ urea 9” value in assay [7] came to 10 fold. In addition, the “increase in potency relative to vinblastine” value in assay [7] is listed as 100 fold.
`CC[C@]1(NC(=O)N2Cc3ccc(NC(=O)c4cccnn4)cc3C2)C[C@H]2CN(CCc3c([nH]c4ccccc34)[C@@](C(=O)OC)(c3cc4c(cc3OC)N(C)[C@H]3[C@@](O)(C(=O)OC)[C@H](OC(C)=O)[C@]5(CC)C=CCN6CC[C@]43[C@@H]65)C2)C1` [Compound 61]: the IC50 is 0.059 nM in assay [4], 0.067 nM in assay [5] (setting [8]), 0.07 nM in assay [5] (setting [9]) and 0.87 nM in assay [6]. Also, the “increase in potency relative to vinblastine, HCT116/VM46” value in assay [6] came to 700 fold. Further, the “% displacement of BODIPY-vinblastine bound to tubulin” value with tubulin is 100% and 101 ± 4%. For the same molecule, the “more potent than the C20′ urea 9” value in assay [7] worked out at 10 fold. Besides, the “increase in potency relative to vinblastine” value in assay [7] was 100 fold.
For `CC[C@]1(O)C[C@H]2CN(CCc3c([nH]c4ccc(F)cc34)[C@@](C(=O)OC)(c3cc4c(cc3OC)N(C)[C@H]3[C@@](O)(C(=O)OC)[C@H](OC(C)=O)[C@]5(CC)C=CCN6CC[C@]43[C@@H]65)C2)C1` [Compound 71, 10′-fluorovinblastine, reference compound], the IC50 in assay [5] (setting [9]) stood at 0.8 nM. Moreover, the “% displacement of BODIPY-vinblastine bound to tubulin” value with tubulin came to 48 ± 7%. Also, in assay [7], the “increase in potency relative to vinblastine” value is on record as “roughly 10 fold”.

The term IC50 denotes the concentration that gives 50% inhibition.
